Test results: patent US4876266A, “1-aralkyl-2-mercaptoimidazolines as DBH inhibitors” (SmithKline Beckman Corporation, priority 1987, dated 1989)

Legend:
[1] = system: spontaneously hypertensive rats; assay: mean arterial blood pressure in spontaneously hypertensive rats, indwelling cannulae in the tail arteries; assay type: in vivo, rat; conditions: 50 mg/kg orally; within approximately
Procedure: Further, spontaneously hypertensive rats were treated with a suspension or solution of 1-(3,5-difluorobenzyl)-2-mercaptoimidazoline at a dose of 50 mg/kg orally and mean arterial blood pressure was monitored for 260 minutes using indwelling cannulae in the tail arteries. […] Maximum blood pressure reduction was approximately 15 to 20 mm Hg.

[2] = target: T1, dopamine-β-hydroxylase (DBH) (Bos taurus, UniProt P15101); assay: in vitro DBH inhibition, conversion of tyramine to octopamine in the presence of DBH, spectrophotometric absorbance at 330 nm; assay type: biochemical; conditions: concentration of compound at which DBH activity was halved
T1 sequence (P15101 1-610): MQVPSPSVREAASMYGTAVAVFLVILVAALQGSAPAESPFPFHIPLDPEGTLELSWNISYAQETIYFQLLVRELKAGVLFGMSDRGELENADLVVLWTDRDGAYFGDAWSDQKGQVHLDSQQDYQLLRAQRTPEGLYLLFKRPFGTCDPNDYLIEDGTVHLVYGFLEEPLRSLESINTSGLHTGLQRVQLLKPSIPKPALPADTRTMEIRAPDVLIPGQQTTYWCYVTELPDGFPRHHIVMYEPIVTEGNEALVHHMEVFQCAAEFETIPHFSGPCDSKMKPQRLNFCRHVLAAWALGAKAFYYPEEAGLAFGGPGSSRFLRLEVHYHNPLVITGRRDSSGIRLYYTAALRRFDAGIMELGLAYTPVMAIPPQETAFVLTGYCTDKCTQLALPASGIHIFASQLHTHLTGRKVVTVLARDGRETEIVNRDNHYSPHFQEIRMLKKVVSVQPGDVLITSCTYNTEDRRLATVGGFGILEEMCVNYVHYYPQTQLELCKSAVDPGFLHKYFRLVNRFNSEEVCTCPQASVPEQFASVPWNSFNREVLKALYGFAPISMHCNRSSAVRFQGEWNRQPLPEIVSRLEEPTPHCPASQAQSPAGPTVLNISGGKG
Procedure: Listed in Table III are the compounds of the invention that were tested for in vitro DBH inhibition by a standard procedure for assaying conversion of tyramine to octopamine in the presence of DBH. J. J. Pisano, et al., Biochim. Biophys. Acta, 43, 566-568 (1960). Octopamine was assayed following sodium periodate oxidation to p-hydroxybenzaldehyde by measuring spectrophotometric absorbance at 330 nm.

[3] = system: DBH; conditions: significance of the observation is uncertain; cited from earlier work

| IC50 [2] [µM] | Structure (SMILES) | time after treatment to significant blood pressure reductions [1] [min] | DBH levels in treated patients [3] |
| --- | --- | --- | --- |
| 1.2 | Fc1cc(F)cc(CN2CCN=C2S)c1 [1-(3,5-Difluorobenzyl)-2-mercaptoimidazoline] | ≤ 30 |  |
| 10 | S=C1NCCN1Cc1ccccc1 [1-Benzyl-2-mercaptoimidazoline] |  |  |
|  | CC(N)(Cc1ccc(O)c(O)c1)C(=O)O (stereo not drawn) [alpha-methyl-DOPA] |  | lowered DBH levels |
|  | COC(=O)[C@H]1[C@H]2C[C@@H]3c4[nH]c5cc(OC)ccc5c4CCN3C[C@H]2C[C@@H](OC(=O)c2cc(OC)c(OC)c(OC)c2)[C@@H]1OC [reserpine] |  | lowered DBH levels |
